Marks after values point to notes of the source that are not given here.
Experiments:
[1] = test system: LTB4-induced CD11b expression in neutrophils; assay: CD11b assay, mouse whole blood; assay type: cell-based; conditions: Neutrophil, 25 nM LTB4
Procedure: EDTA anti-coagulated blood is collected from human donors or mice as before. For in vitro experiments, 8 or 10 point dose response curves of test compounds are assayed at final concentrations of 78 nM-10 μM or 20 nM-10 μM respectively. ½ serial dilutions of compound at 1000× of final assayed concentration are prepared in DMSO. Compound is then diluted to 10× in DPBS (DMSO concentration is now 1%). 10 μL of compound dilutions (at 10× in DPBS) or 1% DMSO in DPBS are added to wells of a 96 deep well plate. 90 μL whole blood is added and incubated 20 min at room temperature. 11 μL of 10×LTB4 (final concentration 25 nM for mouse or 10 nM human) is added and incubated at 37° C. for 30 min. The reaction is stopped by incubating the plate on ice for 5 min. The cells are stained with 10 μL anti-mouse or anti-human CD11b-PE (BD Biosciences diluted 1:20 for mouse and undiluted for human) and incubated on ice for 30 min in the dark (for mouse experiments, 10 μL anti-mouse LY6G-FITC antibody (BD Pharmingen) diluted 1:25 is added for the final 10 min) Red blood cells (RBCs) are lysed by adding 1.5 mL of 1×BD FACSlyse (BD Biosciences) and incubating for 10 min at room temperature in the dark. […] Data are analyzed with WinList software (Verity Software House) to determine mean and median fluorescent intensity values for CD11b-PE from neutrophil population.

[2] = test system: BCA atherosclerosis lesions in LDLr KO mice; assay: LDLr KO mouse brachiocephalic arch atherosclerosis model; assay type: in vivo; conditions: for Lesion area: 4 weeks, vehicle 50,686; for Macrophage area (brown color): vehicle 18,571; for reduction of lesion area compared to vehicle / reduction of BCA cholesteryl ester (CE) content compared to vehicle: Table 3; for Cholesteryl ester: BCA, vehicle 22.50
Procedure: The compound of Example 2 is tested in the low density lipoprotein (LDL) receptor knock-out (LDLr KO) mouse model of atherosclerosis. Mice deficient in the ability to encode and synthesize the LDL receptor (LDLr KO) are hypercholesterolemic, especially when maintained on high cholesterol diet, Ishibashi et al. J. Clin. Invest. (1994), 93: 1885-1893. In the large arteries, LDLr KO mice develop spontaneous atherosclerotic lesions that mimic major features of the cellular, lipid, and extracellular matrix composition of human lesions. An important constituent of both human and mouse lesions is the lipid-laden macrophage or “foam cell” in the arterial subendothelium. The esterified cholesterol stored by macrophages is a surrogate for lesion development. Assay of esterified cholesterol directly from mouse arterial tissue (by LC/MS) provides a rapid index of lesion burden. The LDLr KO model used in the present study takes advantage of the rapid development of mature atherosclerotic plaques in the brachiocephalic artery (BCA). Primary endpoints for the study are arterial cholesteryl ester content and lesion dimensions obtained by light microscopic measurement of lesions in serial cross-sections of the artery.
(§1) LDLr KO mice (JAX #002207), 7 week old males, were obtained from The Jackson Laboratory (Bar Harbor, Me.). Upon arrival at the testing facility and continuing for a total of 10 weeks, mice were housed individually and fed the atherogenic diet TD.88137 (Teklad) ad libitum. During the first 6 weeks, the mice rested undisturbed in their cages. During the last 4 weeks, the mice received the test compound twice daily by oral gavage.

[3] = Exposure (AUC) in the LDLr KO mouse atherosclerosis study; conditions: male, LDLr KO (JAX #002207), in vivo, LDLr KO mice
Source text: as §1

CCCc1c(NC(=O)CC(C)(C)C(=O)[O-])cccc1OCCCOc1cc(O)c(-c2ccc(F)cc2)cc1CC.[Na+] [Example 2, Sodium 4-[[3-[3-[2-ethyl-4-(4-fluorophenyl)-5-hydroxy-phenoxy]propoxy]-2-propyl-phenyl]amino]-2,2-dimethyl-4-oxo-butanoate]
IC50 [1]: 1450 nM | Lesion area ([2]; 3 mg/kg BID oral gavage): 23700 µm² | Macrophage area vs. vehicle ([2]; 3 mg/kg BID, p < 0.02): −65%* | Lesion area vs. vehicle ([2]; 3 mg/kg BID, p < 0.049): −53%* | Cholesteryl ester vs. vehicle ([2]; 3 mg/kg BID, p = NS): −8% | Macrophage area (brown color) ([2]; 3 mg/kg BID): 6520 µm² | reduction of lesion area compared to vehicle ([2]; 3 mg/kg b.i.d.): 53% | Lesion area ([2]; 10 mg/kg BID oral gavage): 21200 µm² | Macrophage area vs. vehicle ([2]; 10 mg/kg BID, p < 0.002): −84%* | Lesion area vs. vehicle ([2]; 10 mg/kg BID, p < 0.034): −58%* | Cholesteryl ester vs. vehicle ([2]; 10 mg/kg BID, p < 0.09): −18% | Macrophage area (brown color) ([2]; 10 mg/kg BID): 2860 µm² | reduction of BCA cholesteryl ester (CE) content compared to vehicle ([2]; 10 mg/kg b.i.d., p<0.09): 18% | reduction of lesion area compared to vehicle ([2]; 10 mg/kg b.i.d.): 58% | Lesion area ([2]; 30 mg/kg BID oral gavage): 17100 µm² | Lesion area vs. vehicle ([2]; 30 mg/kg BID, p < 0.017): −66%* | Cholesteryl ester vs. vehicle ([2]; 30 mg/kg BID, p < 0.04): −23%* | Macrophage area vs. vehicle ([2]; 30 mg/kg BID, p < 0.09): −54% | Macrophage area (brown color) ([2]; 30 mg/kg BID): 8520 µm² | reduction of BCA cholesteryl ester (CE) content compared to vehicle ([2]; 30 mg/kg b.i.d., p<0.04): 23% | reduction of lesion area compared to vehicle ([2]; 30 mg/kg oral b.i.d., p<0.017): 66% | Cholesteryl ester ([2]; 3 mg/kg BID): 17.95 nmol | Cholesteryl ester ([2]; 10 mg/kg BID): 16.97 nmol | Cholesteryl ester ([2]; 30 mg/kg BID): 14.51 nmol | AUC ([3]; 3 mg/kg BID oral gavage): 1110 ng·h/mL | AUC ([3]; 10 mg/kg BID oral gavage): 5380 ng·h/mL | AUC ([3]; 30 mg/kg BID oral gavage): 12800 ng·h/mL
